Data reported in patent publication US8759104B2, “Cationic lipids” (The University Court of the University of Edinburgh, priority 2010, dated 2014).

test system: HeLa cells; test: Transfection of pEGFP-C1 reporter plasmid into HeLa cells, GFP expression by flow cytometry; type: cell-based, human; conditions: HeLa cells 48 h after transfection with reporter plasmid, flow cytometry
Method: The corresponding cationic lipid (1 mM in methanol) were mixed in different proportions with DOPE (10 mg/mL in chloroform) and the organic solvent removed by evaporation in an oven (37° C.) overnight. The resultant thin films were then hydrated with PBS. The solutions were vortexed (10-20 s) and incubated at ambient temperature for 20 min. Plasmid DNA or siRNA solution (0.04 mg/mL in PBS or another isotonic solution) was subsequently added and the solution vortexed (10-20 s). The lipoplexes were incubated at room temperature for 20 min before being used.
Human HeLa cells were grown in RPMI supplemented with 4 mM glutamine, 10% FCS and 100 units/ml penicillin/streptomycin (RPMI-CM) until 80% confluence. HEK293 and B16F10 cells were grown in DMEM supplemented with 4 mM glutamine, 10% FCS and 100 units/ml penicillin/streptomycin (DMEM-CM) until 80% confluence. Cells were then suspended using trypsin/EDTA and counted. 2×10^4 cells in 150 μL of media per well were seeded in 96 well plates and incubated overnight. The day afterwards, the different lipoplex formulations were added. Each experiment was performed in quadruplicate, using Effectene® Transfection Reagent (Qiagen), Lipofectamine™ 2000 (Invitrogen) and Fugene (Roche) as positive controls and untreated cells as negative controls. After two days incubation at 37° C. and 5% CO2 (the change of media after transfection was not necessary), the green fluorescent protein (GFP) expression, as a consequence of transfecting the pEGFP-C1, was evidenced using a fluorescent microscope (Leica) and measured by flow cytometry. For the flow cytometry analysis, cells were washed twice with PBS, detached with trypsin/EDTA, harvested with 2% ferum bovine serum (FBS) in PBS, centrifuged and resuspended with 2% FBS in PBS and analyzed using a BD FACSaria flow cytometer. Transfection efficiency was measured as percentage of transfected cells.
Reagents that obtained greater than 50% transfection were also analyzed against HEK293 and B16F10 cell lines. Transfection results (+ percentages of transfection between 5-25%; ++ percentages of transfection between 25-50%; N.D. not determined). MTT toxicity assay results are indicated between brackets with 100% being cell viability of untreated cells.

Row | Structure (SMILES) | Transfection results (percentage of transfected cells), HeLa
1 | CCCCCCCCCCCCCCCC(=O)NCCCN(CCCNC(=O)CCCCCCCCCCCCCCC)C(=O)/C=C\C(=O)N[C@@H](CCCNC(=N)N)C(=O)N[C@@H](CCCNC(=N)N)C(=O)N[C@@H](CCCNC(=N)N)C(N)=O.O=C(O)C(F)(F)F.O=C(O)C(F)(F)F.O=C(O)C(F)(F)F [Compound A3-Sp4-P] | + (percentages of transfection between 5-25%)
2 | CCCCCCCCCCCCCCCCCCCC(=O)NCCCN(CCCNC(=O)CCCCCCCCCCCCCCCCCCC)C(=O)/C=C\C(=O)N[C@@H](CCCNC(=N)N)C(=O)N[C@@H](CCCNC(=N)N)C(N)=O.O=C(O)C(F)(F)F.O=C(O)C(F)(F)F [Compound A2-Sp4-A] | + (percentages of transfection between 5-25%)
3 | CCCCCCCC/C=C\CCCCCCCC(=O)NCCCN(CCCNC(=O)CCCCCCC/C=C\CCCCCCCC)C(=O)CCC(=O)N[C@@H](CCCNC(=N)N)C(=O)N[C@@H](CCCNC(=N)N)C(=O)N[C@@H](CCCNC(=N)N)C(N)=O.O=C(O)C(F)(F)F.O=C(O)C(F)(F)F.O=C(O)C(F)(F)F [Compound A3-Sp3-O] | ++ (percentages of transfection between 25-50%)
4 | CCCCCCCC/C=C\CCCCCCCC(=O)NCCN(CCNC(=O)CCCCCCC/C=C\CCCCCCCC)C(=O)/C=C\C(=O)N[C@@H](CCCNC(=N)N)C(=O)N[C@@H](CCCNC(=N)N)C(=O)N[C@@H](CCCNC(=N)N)C(N)=O.O=C(O)C(F)(F)F.O=C(O)C(F)(F)F.O=C(O)C(F)(F)F [Compound A3-Sp2-O] | ++ (percentages of transfection between 25-50%)
5 | CCCCCCCCCCCCCCCCCCCCCCCC(=O)NCCCN(CCCNC(=O)CCCCCCCCCCCCCCCCCCCCCCC)C(=O)CCC(=O)N[C@@H](CCCNC(=N)N)C(=O)N[C@@H](CCCNC(=N)N)C(=O)N[C@@H](CCCNC(=N)N)C(N)=O.O=C(O)C(F)(F)F.O=C(O)C(F)(F)F.O=C(O)C(F)(F)F [Compound A3-Sp3-L] | + (percentages of transfection between 5-25%)
6 | CCCCCCCCCCCCCCCCCC(=O)NCCN(CCNC(=O)CCCCCCCCCCCCCCCCC)C(=O)/C=C\C(=O)N[C@@H](CCCNC(=N)N)C(N)=O.O=C(O)C(F)(F)F [Compound A1-Sp2-S] | + (percentages of transfection between 5-25%)
7 | CCCCCCCCCCCCCCCCCC(=O)NCCN(CCNC(=O)CCCCCCCCCCCCCCCCC)C(=O)/C=C\C(=O)N[C@@H](CCCNC(=N)N)C(=O)N[C@@H](CCCNC(=N)N)C(N)=O.O=C(O)C(F)(F)F.O=C(O)C(F)(F)F [Compound A2-Sp2-S] | ++ (percentages of transfection between 25-50%)
8 | CCCCCCCCCCCCCCCC(=O)NCCCN(CCCNC(=O)CCCCCCCCCCCCCCC)C(=O)/C=C\C(=O)N[C@@H](CCCNC(=N)N)C(=O)N[C@@H](CCCNC(=N)N)C(N)=O.O=C(O)C(F)(F)F.O=C(O)C(F)(F)F [Compound A2-Sp4-P] | + (percentages of transfection between 5-25%)
9 | CCCCCCCCCCCCCCCCCCCC(=O)NCCCN(CCCNC(=O)CCCCCCCCCCCCCCCCCCC)C(=O)/C=C\C(=O)N[C@@H](CCCNC(=N)N)C(=O)N[C@@H](CCCNC(=N)N)C(=O)N[C@@H](CCCNC(=N)N)C(N)=O.O=C(O)C(F)(F)F.O=C(O)C(F)(F)F.O=C(O)C(F)(F)F [Compound A3-Sp4-A] | + (percentages of transfection between 5-25%)
10 | CCCCCCCCCCCCCCCCCC(=O)NCCCN(CCCNC(=O)CCCCCCCCCCCCCCCCC)C(=O)CCC(=O)N[C@@H](CCCNC(=N)N)C(=O)N[C@@H](CCCNC(=N)N)C(N)=O.O=C(O)C(F)(F)F.O=C(O)C(F)(F)F [Compound A2-Sp3-S] | + (percentages of transfection between 5-25%)
11 | CCCCCCCCCCCCCCCC(=O)NCCCN(CCCNC(=O)CCCCCCCCCCCCCCC)C(=O)/C=C\C(=O)N[C@@H](CCCNC(=N)N)C(N)=O.O=C(O)C(F)(F)F [Compound A1-Sp4-P] | + (percentages of transfection between 5-25%)
12 | CCCCCCCCCCCCCCCCCCCC(=O)NCCN(CCNC(=O)CCCCCCCCCCCCCCCCCCC)C(=O)/C=C\C(=O)N[C@@H](CCCNC(=N)N)C(=O)N[C@@H](CCCNC(=N)N)C(N)=O.O=C(O)C(F)(F)F.O=C(O)C(F)(F)F [Compound A2-Sp2-A] | ++ (percentages of transfection between 25-50%)
13 | CCCCCCCCCCCCCCCC(=O)NCCN(CCNC(=O)CCCCCCCCCCCCCCC)C(=O)CCC(=O)N[C@@H](CCCNC(=N)N)C(N)=O.O=C(O)C(F)(F)F [Compound A1-Sp1-P] | + (percentages of transfection between 5-25%)
14 | CCCCCCCCCCCCCCCCCCCCCCCC(=O)NCCCN(CCCNC(=O)CCCCCCCCCCCCCCCCCCCCCCC)C(=O)/C=C\C(=O)N[C@@H](CCCNC(=N)N)C(N)=O.O=C(O)C(F)(F)F [Compound A1-Sp4-L] | + (percentages of transfection between 5-25%)
15 | CCCCCCCCCCCCCCCC(=O)NCCCN(CCCNC(=O)CCCCCCCCCCCCCCC)C(=O)CCC(=O)N[C@@H](CCCNC(=N)N)C(N)=O.O=C(O)C(F)(F)F [Compound A1-Sp3-P] | + (percentages of transfection between 5-25%)
16 | CCCCCCCCCCCCCCCCCCCC(=O)NCCN(CCNC(=O)CCCCCCCCCCCCCCCCCCC)C(=O)CCC(=O)N[C@@H](CCCNC(=N)N)C(=O)N[C@@H](CCCNC(=N)N)C(=O)N[C@@H](CCCNC(=N)N)C(N)=O.O=C(O)C(F)(F)F.O=C(O)C(F)(F)F.O=C(O)C(F)(F)F [Compound A3-Sp1-A] | + (percentages of transfection between 5-25%)
17 | CCCCCCCC/C=C\CCCCCCCC(=O)NCCN(CCNC(=O)CCCCCCC/C=C\CCCCCCCC)C(=O)/C=C\C(=O)N[C@@H](CCCNC(=N)N)C(N)=O.O=C(O)C(F)(F)F [Compound A1-Sp2-O] | + (percentages of transfection between 5-25%)
18 | CCCCCCCCCCCCCCCCCC(=O)NCCCN(CCCNC(=O)CCCCCCCCCCCCCCCCC)C(=O)CCC(=O)N[C@@H](CCCNC(=N)N)C(N)=O.O=C(O)C(F)(F)F [Compound A1-Sp3-S] | + (percentages of transfection between 5-25%)
19 | CCCCCCCCCCCCCCCCCCCCCCCC(=O)NCCN(CCNC(=O)CCCCCCCCCCCCCCCCCCCCCCC)C(=O)/C=C\C(=O)N[C@@H](CCCNC(=N)N)C(N)=O.O=C(O)C(F)(F)F [Compound A1-Sp2-L] | + (percentages of transfection between 5-25%)
20 | CCCCCCCCCCCCCCCCCCCC(=O)NCCCN(CCCNC(=O)CCCCCCCCCCCCCCCCCCC)C(=O)CCC(=O)N[C@@H](CCCNC(=N)N)C(=O)N[C@@H](CCCNC(=N)N)C(N)=O.O=C(O)C(F)(F)F.O=C(O)C(F)(F)F [Compound A2-Sp3-A] | + (percentages of transfection between 5-25%)
21 | CCCCCCCCCCCCCCCCCCCCCCCC(=O)NCCCN(CCCNC(=O)CCCCCCCCCCCCCCCCCCCCCCC)C(=O)CCC(=O)N[C@@H](CCCNC(=N)N)C(N)=O.O=C(O)C(F)(F)F [Compound A1-Sp3-L] | + (percentages of transfection between 5-25%)
